Tested on: HuH7 cells
Assay: Colony formation, HuH7
Format: cell-based, human
Settings: tested at 0-20 μM (FIG. 29)
Experimental: Assays were performed to measure inhibition of cancer cell proliferation in HuH7 cells by compounds (4), (22) and (36), which were each tested at 0-20 μM.

With `Nc1nncn1CC(=O)Nc1ccc(C23CC4CC(CC(C4)C2)C3)cc1` [Compound 36] the “inhibition of cancer cell proliferation / colony formation in HuH7 cells” value was “less effective”.
For `Cc1cccc(C)c1-c1ccc(NC(=O)CSc2nnc[nH]2)cc1` [Compound 23], the “inhibition of cancer cell proliferation / colony formation in HuH7 cells” value was “effective”.

Target: T1, TEAD2 (Homo sapiens, UniProt Q15562)
T1 construct: The cDNA encoding human TEAD2 (residues 217-447, TEAD2^217-447) was cloned into a pET29 vector; made in house; host or cells: E. coli BL21(DE3)-T1R
T1 sequence (Q15562 217-447): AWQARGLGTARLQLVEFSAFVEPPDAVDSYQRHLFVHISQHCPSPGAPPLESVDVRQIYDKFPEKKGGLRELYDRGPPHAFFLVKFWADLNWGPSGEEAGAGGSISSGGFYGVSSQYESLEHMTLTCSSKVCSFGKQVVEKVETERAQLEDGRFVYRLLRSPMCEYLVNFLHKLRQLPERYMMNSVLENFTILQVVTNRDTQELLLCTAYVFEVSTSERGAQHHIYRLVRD
Assay: In vitro palmitoylation assay to measure potency of TEAD palmitoylation inhibitors (Example 11)
Format: biochemical
Settings: compound at 5 μM, 3 μM alkyne palmitoyl-CoA, normalized to DMSO control
Experimental: Recombinant His6TEAD2 (500 ng) protein was incubated with DMSO control or TEAD inhibitors (MGH-CP1 and its analogues) at 5 μM for 30 min. 3 μM of alkyne palmitoyl-CoA (Cayman Chemical) were then added into the reaction mixture and incubated for 2 h in 50 mM MES, pH 6.4. The reaction was quenched with 1% SDS followed by Click reaction with biotin-azide. Samples were analyzed by SDS-PAGE and streptavidin HRP. Bands intensity obtained from streptavidin blot were quantified using Image J (NIH), and normalized to DMSO control. The percentage of inhibition was determined by comparing to DMSO control and non-palmitoylated TEAD2. To determine the dose-dependency of the inhibitors, various concentrations of the compounds (10 nM to 20 μM) were incubated with TEAD2 protein for 30 min, and then 3 μM of alkyne palmitoyl-CoA (Cayman Chemical) were then added into the reaction mixture and incubated for 2 h in 50 mM MES, pH 6.4. The reaction was then quenched and analyzed similarly as descried above. The level of palmitoylation was then determined by the streptavidin blot, and plotted by Prism to determine the IC50 values.
Compounds (4) to (53) were tested for activity in inhibiting TEAD palmitoylation in the assay of Example 11. The data for the compounds provided in Table 2 as a percentage of inhibition of TEAD2 palmitoylation by the compound at a concentration of 5 μM.

Compared with `O=C(CSc1nnc[nH]1)N(c1cccc(C(F)(F)F)c1)c1ccccn1`, `O=C(CSc1nnc[nH]1)Nc1ccc(-c2cccc(C(F)(F)F)c2)cc1` is higher in inhibition at 5 µM: < 10% for the first, 88% for the second.

Compared with `CCn1c(SCC(=O)Nc2ccc(C34CC5CC(CC(C5)C3)C4)cc2)nnc1-c1ccccc1O`, `Cn1c(SCC(=O)Nc2ccc(C34CC5CC(CC(C5)C3)C4)cc2)nnc1-c1ccccc1` is higher in inhibition at 5 µM: 10% for the first, 70% for the second.

First: O=C(CSc1nncs1)Nc1ccc(C23CC4CC(CC(C4)C2)C3)cc1
Second: O=C(CSc1nnc[nH]1)Nc1ccc(C23CC4CC(CC(C4)C2)C3)cc1 [drawing 23]
The inhibition at 5 µM of the first is lower: 68% for the first, 85% for the second.

First: O=C(CSc1nnc[nH]1)Nc1ccc(-c2cc(C(F)(F)F)cc(C(F)(F)F)c2)cc1
Second: O=C(CSc1nnc[nH]1)Nc1ccc(-c2cc(-c3ccccc3)cc(C(F)(F)F)c2)cc1
The inhibition at 5 µM of the first is higher: 95% for the first, 90% for the second.

First: Cn1cnnc1SCC(=O)Nc1ccc(C23CC4CC(CC(C4)C2)C3)cc1Br
Second: O=C(CSc1nnc[nH]1)Nc1ccc(C23CC4CC(CC(C4)C2)C3)cc1Br
The inhibition at 5 µM of the first is lower: 12% for the first, 87% for the second.

Compared with `COc1ccc(-c2nnc(SCC(=O)Nc3ccc(C45CC6CC(CC(C6)C4)C5)cc3)[nH]2)cc1`, `Cc1ccc(-c2nnc(SCC(=O)Nc3ccc(C45CC6CC(CC(C6)C4)C5)cc3)o2)cc1` is lower in inhibition at 5 µM: 80% for the first, 53% for the second.

First: O=C(CSc1nnc[nH]1)Oc1ccc(C23CC4CC(CC(C4)C2)C3)cc1
Second: O=C(CCSc1nnc[nH]1)Nc1ccc(C23CC4CC(CC(C4)C2)C3)cc1
The inhibition at 5 µM of the first is lower: 39% for the first, 100% for the second.

Compared with `O=C(CSc1nnc[nH]1)Nc1ccc(-c2ccccc2)cc1`, `O=C(CSc1nnc[nH]1)Nc1ccc(-c2cccc(-c3ccccc3)c2)cc1` is lower in inhibition at 5 µM: 89% for the first, 70% for the second.

Going from `O=C(CSc1nnc[nH]1)Nc1ccc(-c2cc(-c3ccccc3)cc(-c3ccccc3)c2)cc1` to `O=C(CSc1nnc[nH]1)Nc1ccc(-c2cc(-c3ccccc3)nc(-c3ccccc3)c2)cc1`, the inhibition at 5 µM rises from 68% to 78%.

First: O=C(CCCSc1nnc[nH]1)Nc1ccc(C23CC4CC(CC(C4)C2)C3)cc1
Second: O=C(CNc1nnc[nH]1)Nc1ccc(C23CC4CC(CC(C4)C2)C3)cc1
The inhibition at 5 µM of the first is higher: 100% for the first, 45% for the second.

`Cc1cccc(C)c1-c1ccc(NC(=O)CSc2nnc[nH]2)cc1` [drawing 42] and `Cc1cc(C)cc(-c2ccc(NC(=O)CSc3nnc[nH]3)cc2)c1` are the same in inhibition at 5 µM: 100% for the first, 100% for the second.

Compared with `Nc1nncn1CC(=O)Nc1ccc(C23CC4CC(CC(C4)C2)C3)cc1` [drawing 55], `Cn1cnnc1SCC(=O)Nc1ccc(C23CC4CC(CC(C4)C2)C3)cc1` is lower in inhibition at 5 µM: 38% for the first, 10% for the second.

First: O=C(CSc1nnc[nH]1)Nc1ccc(-c2ccncc2)cc1
Second: O=C(CSc1nnc[nH]1)Nc1ccc(-c2cccc(-c3ccncc3)c2)cc1
The inhibition at 5 µM of the first is lower: 90% for the first, 100% for the second.

First: CC(C)(C)c1ccc(NC(=O)CSc2nnc[nH]2)cc1
Second: CC(C)(C)c1ccc(-c2ccc(NC(=O)CSc3nnc[nH]3)cc2)cc1
The inhibition at 5 µM of the first is lower: 30% for the first, 100% for the second.

Compared with `Cn1cnnc1SCC(=O)Nc1ccc(-c2ccccc2)cc1`, `O=C(CSc1nnc[nH]1)Nc1ccc(-c2cccc3ccccc23)cc1` is higher in inhibition at 5 µM: 23% for the first, 90% for the second.

Compared with `O=C(CSc1nnc[nH]1)Nc1ccc(-c2cc(-c3cccnc3)cc(-c3cccnc3)c2)cc1`, `O=C(CSc1nnc[nH]1)Nc1ccc(-c2cccc(-c3cccnc3)c2)cc1` is higher in inhibition at 5 µM: 95% for the first, 100% for the second.

Compared with `CCOc1ccc2nc(SCC(=O)Nc3ccc(C45CC6CC(CC(C6)C4)C5)cc3)sc2c1`, `CCOc1ccc2nc(SCCC(=O)Nc3ccc(C45CC6CC(CC(C6)C4)C5)cc3)sc2c1` is higher in inhibition at 5 µM: 40% for the first, 47% for the second.

Going from `O=C(CSc1nnc[nH]1)Nc1ccc(-c2cc3ccccc3c3ccccc23)cc1` to `O=C(CSc1nnc[nH]1)Nc1ccc(-c2cc(-c3ccncc3)cc(-c3ccncc3)c2)cc1`, the inhibition at 5 µM rises from 56% to 90%.

Compared with `Cc1nnc(SCC(=O)Nc2ccc(C34CC5CC(CC(C5)C3)C4)cc2)o1`, `Cc1nnc(SCCC(=O)Nc2cccc(C34CC5CC(CC(C5)C3)C4)c2)o1` is higher in inhibition at 5 µM: 76% for the first, 80% for the second.

First: O=C(Nc1ccc(C23CC4CC(CC(C4)C2)C3)cc1)c1cccnc1Nc1cccc(C(F)(F)F)c1
Second: Cc1ccc(-c2nnc(SCCCC(=O)Nc3ccc(C45CC6CC(CC(C6)C4)C5)cc3)o2)cc1
The inhibition at 5 µM of the first is lower: < 10% for the first, 58% for the second.

First: O=C(CSc1nnc[nH]1)Nc1ccc(-c2ccc(C3CCCCC3)cc2)cc1
Second: CCCc1ccc(-c2ccc(NC(=O)CSc3nnc[nH]3)cc2)cc1
The inhibition at 5 µM of the first is lower: 93% for the first, 97% for the second.

Going from `O=C(CS(=O)(=O)c1nnc[nH]1)Nc1ccc(C23CC4CC(CC(C4)C2)C3)cc1` to `CCn1c(CN2CCOCC2)nnc1SCC(=O)Nc1ccc(C23CC4CC(CC(C4)C2)C3)cc1`, the inhibition at 5 µM rises from < 10% to 10%.

Compared with `Cc1cc(-c2ccc(NC(=O)CSc3nnc[nH]3)cc2)cc(C)n1`, `CC(C)c1ccc(NC(=O)CSc2nnc[nH]2)cc1` is lower in inhibition at 5 µM: 95% for the first, 24% for the second.

Going from `Cc1ccc(-c2nnc(SCCC(=O)Nc3cccc(C45CC6CC(CC(C6)C4)C5)c3)o2)cc1` to `O=C(CCSc1nnc(-c2ccc(Cl)cc2Cl)o1)Nc1cccc(C23CC4CC(CC(C4)C2)C3)c1`, the inhibition at 5 µM falls from 80% to 63%.

Going from `O=C(CSc1nnc(-c2ccc(Cl)cc2Cl)o1)Oc1ccc(C23CC4CC(CC(C4)C2)C3)cc1` to `O=C(CSc1nnc[nH]1)Nc1ccc(-c2ccccc2)cc1Br`, the inhibition at 5 µM rises from 56% to 89%.

— patent publication US10696642B2, “TEAD transcription factor autopalmitoylation inhibitors” (The General Hospital Corporation, priority 2015, dated 2020)
